From ChEMBL document CHEMBL1201862, “PubChem BioAssay data set” (2004)
Several values for one entry are separate records, joined by “and”; a condition that tells them apart may be missing. Identical values can stand only once.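 Interpolation was linear, between the two tested concentrations surrounding the appropriate level; five concentrations were tested over 48 hours in 96-well plates. GI50 marks 50% less growth.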 Activity calls are given as the source filed them. Cut-off read from the data, not from the text of the source: active = GI50 up to about 1.1 µM and inactive = higher.

Assays:
Assay in all cases: NCI-60 cell line screen, 48 h
DLD-1 = system: DLD-1
DMS-273 = system: DMS-273
HOP-18 = system: HOP-18
KM-20L2 = system: KM-20L2
LXFL 529 = system: LXFL 529
M19-MEL = system: M19-MEL
RXF 631 = system: RXF 631
SNB-78 = system: SNB-78
XF498 = system: XF498

Row | SMILES | GI50 (DLD-1) | GI50 (DMS-273) | GI50 (HOP-18) | GI50 (KM-20L2) | GI50 (LXFL 529) | GI50 (M19-MEL) | GI50 (RXF 631) | GI50 (SNB-78) | GI50 (XF498)
1 | CCOC(=O)C1(C)CCCCC(=O)N1 (stereo unspecified) | > 100 µM (inactive) | > 100 µM (inactive) | 64.3 µM (inactive) | > 100 µM (inactive) | > 100 µM (inactive) | > 100 µM (inactive) | > 100 µM (inactive) | > 100 µM (inactive) | > 100 µM (inactive)
2 | CN(c1ccccc1)c1c(Cl)c(=O)oc2c1ccc1occc12 | > 100 µM (inactive) | > 100 µM (inactive) | > 100 µM (inactive) | > 100 µM (inactive) | > 100 µM (inactive) | > 100 µM (inactive) | > 100 µM (inactive) | > 100 µM (inactive) | 
3 | C=CCCn1nc(-c2ccccc2)oc1=O | > 100 µM (inactive) | > 100 µM (inactive) | > 100 µM (inactive) | > 100 µM (inactive) | > 100 µM (inactive) | > 100 µM (inactive) |  | > 100 µM (inactive) | > 100 µM (inactive)
4 | CN=[S+]([O-])(c1ccccc1)c1ccccc1 | > 100 µM (inactive) | > 100 µM (inactive) | > 100 µM (inactive) | > 100 µM (inactive) |  | > 100 µM (inactive) |  | > 100 µM (inactive) | > 100 µM (inactive)
5 | CC1C2=CC=C(O2)C(C)(C)C2=CC=C(O2)C(C)(C)C2=CC=C(O2)C(C)(C)C2=CC=C1O2 |  | > 100 µM (inactive) | > 100 µM (inactive) | > 100 µM (inactive) | > 100 µM (inactive) | > 100 µM (inactive) |  | > 100 µM (inactive) | > 100 µM (inactive)
6 | O=C(Nc1nc2ncn(CCOC(=O)c3ccccc3)c2c(=S)[nH]1)c1ccccc1 | > 100 µM (inactive) | 50.9 µM (inactive) | > 100 µM (inactive) | > 100 µM (inactive) | 49.3 µM (inactive) | 50.4 µM (inactive) |  | 44.1 µM (inactive) | 
7 | CCOC(=O)N1Cc2ccoc2C1 | > 100 µM (inactive) | > 100 µM (inactive) | > 100 µM (inactive) | > 100 µM (inactive) | > 100 µM (inactive) | > 100 µM (inactive) |  |  | 
8 | CCCc1cc(-c2ccc(-c3cc(CCC)c(C=O)[nH]3)s2)[nH]c1C=O | 44.5 µM (inactive) | 86.1 µM (inactive) | 53 µM (inactive) |  | 76.4 µM (inactive) | 4.53 µM (inactive) |  | > 100 µM (inactive) | > 100 µM (inactive)
9 | CC(C)(CCl)NC(=O)c1cccc(C(=O)NC(C)(C)CCl)n1 | > 100 µM (inactive) | > 100 µM (inactive) |  | > 100 µM (inactive) | > 100 µM (inactive) | > 100 µM (inactive) | > 100 µM (inactive) | > 100 µM (inactive) | 
10 | O=C(CC(=O)C1=CNc2ccccc2S1)C(=O)Nc1ccc(Cl)cc1 | > 50 µM (inactive) | > 50 µM (inactive) |  | > 50 µM (inactive) | > 50 µM (inactive) | > 50 µM (inactive) | > 50 µM (inactive) | > 50 µM (inactive) | > 50 µM (inactive)
11 | O=C(COc1ccccc1Cl)N1N=C(c2ccccc2)CC1(O)c1ccccc1 (stereo unspecified) | 18.5 µM (inactive) | 16.7 µM (inactive) |  | 16.1 µM (inactive) | 17.1 µM (inactive) | 19 µM (inactive) |  | 20.4 µM (inactive) | 17.6 µM (inactive)
12 | CCCCCCCCCCCCCCCCc1c(O)nc(NC#N)nc1C(=O)OC | > 25 µM (inactive) |  | > 25 µM (inactive) | > 25 µM (inactive) | > 25 µM (inactive) | > 25 µM (inactive) | > 25 µM (inactive) | > 25 µM (inactive) | > 25 µM (inactive)
13 | COc1cc([C@@H]2c3cc4c(cc3[C@@H](OC(=O)c3cccc(N)c3)C3COC(=O)[C@@H]32)OCO4)cc(OC)c1O (stereo partly specified) | 12.3 µM (inactive) | 0.525 µM (active) |  | 1.41 µM (inactive) | 0.76 µM (active) | 5.68 µM (inactive) |  | 64.4 µM (inactive) | 0.863 µM (active)
14 | CC1CN1c1c(C(=O)/C=C/c2ccc(Cl)cc2)c(-c2ccccc2)nn(C)c1=O (stereo unspecified) | 1.71 µM (inactive) | 2.62 µM (inactive) | 3.92 µM (inactive) | 3.26 µM (inactive) | 2.13 µM (inactive) | 3.14 µM (inactive) |  | 2.21 µM (inactive) | 2.99 µM (inactive)
15 | COC1OC(COCc2ccc(Cl)cc2)C(OCc2ccc(Cl)cc2)C1N=[N+]=[N-] (stereo unspecified) |  |  | > 100 µM (inactive) | 8 µM (inactive) | 95.5 µM (inactive) |  |  | > 100 µM (inactive) | > 100 µM (inactive)
16 | O=S1(=O)NN=C(NCc2ccc(F)cc2)c2ccccc21 | 58.5 µM (inactive) | 47.1 µM (inactive) |  | > 100 µM (inactive) | 27.7 µM (inactive) | 40.4 µM (inactive) |  | 55.6 µM (inactive) | 65 µM (inactive)
17 | N#C/C(=C\c1ccc(O)cc1)C(N)=O | > 100 µM (inactive) | > 100 µM (inactive) |  | > 100 µM (inactive) | > 100 µM (inactive) | > 100 µM (inactive) | > 100 µM (inactive) | > 100 µM (inactive) | > 100 µM (inactive) and > 88.5 µM (inactive)
18 | COC(=O)C(=O)C(C#N)c1nc2ccccc2s1 (stereo unspecified) | 56.4 µM (inactive) | > 100 µM (inactive) |  | > 100 µM (inactive) | > 100 µM (inactive) | > 100 µM (inactive) | > 100 µM (inactive) | > 100 µM (inactive) | > 100 µM (inactive)
19 | O=C(CCC(=O)N/N=C/c1ccccc1O)N/N=C/c1ccccc1O |  | > 100 µM (inactive) |  | > 100 µM (inactive) | > 100 µM (inactive) | > 100 µM (inactive) |  | 51.3 µM (inactive) | 
20 | CC1=C(C)C(=O)c2c(cc3ccccn23)C1=O | > 10 µM (inactive) | 16.6 µM (inactive) | 33.9 µM (inactive) |  | 15.3 µM (inactive) | 1.87 µM (inactive) | 3.12 µM (inactive) | 23.1 µM (inactive) | 
21 | CCOC(=O)C1(Cc2ccc3ccccc3c2)CCCCCN1 (stereo unspecified) | 25.9 µM (inactive) | 18.9 µM (inactive) | 25.5 µM (inactive) | 22.5 µM (inactive) | 34.1 µM (inactive) | 31.1 µM (inactive) |  | 64.3 µM (inactive) | 16.2 µM (inactive)
22 | CCOC(=O)c1cn(CC)c2cc3c(cc2c1=O)SCS3 | > 100 µM (inactive) | > 100 µM (inactive) | 80 µM (inactive) | > 100 µM (inactive) | > 100 µM (inactive) | > 100 µM (inactive) | > 100 µM (inactive) |  | 
23 | Oc1cc(O)c2c(-c3c(O)c(-c4ccc(O)c(O)c4)[o+]c4cc(O)cc(O)c34)c(O)c(-c3ccc(O)c(O)c3)[o+]c2c1 | 87.7 µM (inactive) | 39.6 µM (inactive) | 8 µM (inactive) | 46 µM (inactive) | 55.5 µM (inactive) | 45.3 µM (inactive) | 30.9 µM (inactive) | 51.5 µM (inactive) | 33.7 µM (inactive)
24 | Nc1ccc(C2=N/C(=C\c3cccc(N)c3)C(=O)O2)cc1 | > 100 µM (inactive) |  |  | > 100 µM (inactive) | > 100 µM (inactive) | > 100 µM (inactive) | > 100 µM (inactive) | > 100 µM (inactive) | > 100 µM (inactive)
25 | Cc1cc(C(O)CCCc2ccccc2)cc(C)c1O (stereo unspecified) |  |  | > 100 µM (inactive) | > 100 µM (inactive) | 47.5 µM (inactive) | 37.7 µM (inactive) | 51.5 µM (inactive) | 34.9 µM (inactive) | 
26 | NC(=S)N/N=C(\CCC(=O)Nc1ccccc1[N+](=O)[O-])CC(=O)c1ccco1 | > 100 µM (inactive) | > 100 µM (inactive) | > 100 µM (inactive) | > 100 µM (inactive) | > 100 µM (inactive) | > 100 µM (inactive) | > 100 µM (inactive) | > 100 µM (inactive) | > 100 µM (inactive)
27 | O=C(N/N=C1\C(=O)N(c2nccs2)C(=O)C(=O)C1c1nc2ccccc2s1)c1ccccc1O (stereo unspecified) | 71.1 µM (inactive) | 31.8 µM (inactive) | 10.1 µM (inactive) | > 100 µM (inactive) | 32 µM (inactive) | 87.1 µM (inactive) |  | 33.3 µM (inactive) | 27.1 µM (inactive)
28 | Cc1nc2c(nc1C)C(=O)C1=C(C2=O)C2C=CC1CC2 | 7.53 µM (inactive) | 14.6 µM (inactive) | 16.4 µM (inactive) | 23.3 µM (inactive) | 1.75 µM (inactive) | 1.75 µM (inactive) | 6.15 µM (inactive) | 3.21 µM (inactive) | 5.65 µM (inactive)
29 | COc1ccccc1C(O)(c1ccccc1)C(O)(c1ccccc1)c1ccccc1OC (stereo unspecified) | > 100 µM (inactive) | > 100 µM (inactive) | > 100 µM (inactive) | > 100 µM (inactive) | > 100 µM (inactive) | > 100 µM (inactive) | > 100 µM (inactive) | > 100 µM (inactive) | > 100 µM (inactive)
